The values that follow come from US8741934B2, “Inhibitors of ion channels” (Pfizer Limited, priority 2007, dated 2014).

Structures are written as SMILES. Like-named read-outs stand apart in the source and are kept apart here.

This experiment addresses T1, hSCN3A sodium channels (Homo sapiens, UniProt Q9NY46).
T1 construct: expressed in transfected cells
The experiment can be described thus: hSCN3A electrophysiology, whole-cell patch-clamp or PatchXpress 7000, estimated IC-50 (Table B). The class given is cell-based. The conditions noted are these: read-out: SCN3A EIC-50. The gist of the method:
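A 20 msec test pulse to 0 mV followed an 8 sec conditioning prepulse at each cell's measured V1/2. Room-temperature (22-24° C) recordings on HEK cells stably expressing the channel, conventional or PatchXpress.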

The mark [1] stands for this setting: estimated IC-50, hSCN3A cells, whole-cell patch-clamp or PatchXpress 7000.

T1 sequence (Q9NY46 whole entry): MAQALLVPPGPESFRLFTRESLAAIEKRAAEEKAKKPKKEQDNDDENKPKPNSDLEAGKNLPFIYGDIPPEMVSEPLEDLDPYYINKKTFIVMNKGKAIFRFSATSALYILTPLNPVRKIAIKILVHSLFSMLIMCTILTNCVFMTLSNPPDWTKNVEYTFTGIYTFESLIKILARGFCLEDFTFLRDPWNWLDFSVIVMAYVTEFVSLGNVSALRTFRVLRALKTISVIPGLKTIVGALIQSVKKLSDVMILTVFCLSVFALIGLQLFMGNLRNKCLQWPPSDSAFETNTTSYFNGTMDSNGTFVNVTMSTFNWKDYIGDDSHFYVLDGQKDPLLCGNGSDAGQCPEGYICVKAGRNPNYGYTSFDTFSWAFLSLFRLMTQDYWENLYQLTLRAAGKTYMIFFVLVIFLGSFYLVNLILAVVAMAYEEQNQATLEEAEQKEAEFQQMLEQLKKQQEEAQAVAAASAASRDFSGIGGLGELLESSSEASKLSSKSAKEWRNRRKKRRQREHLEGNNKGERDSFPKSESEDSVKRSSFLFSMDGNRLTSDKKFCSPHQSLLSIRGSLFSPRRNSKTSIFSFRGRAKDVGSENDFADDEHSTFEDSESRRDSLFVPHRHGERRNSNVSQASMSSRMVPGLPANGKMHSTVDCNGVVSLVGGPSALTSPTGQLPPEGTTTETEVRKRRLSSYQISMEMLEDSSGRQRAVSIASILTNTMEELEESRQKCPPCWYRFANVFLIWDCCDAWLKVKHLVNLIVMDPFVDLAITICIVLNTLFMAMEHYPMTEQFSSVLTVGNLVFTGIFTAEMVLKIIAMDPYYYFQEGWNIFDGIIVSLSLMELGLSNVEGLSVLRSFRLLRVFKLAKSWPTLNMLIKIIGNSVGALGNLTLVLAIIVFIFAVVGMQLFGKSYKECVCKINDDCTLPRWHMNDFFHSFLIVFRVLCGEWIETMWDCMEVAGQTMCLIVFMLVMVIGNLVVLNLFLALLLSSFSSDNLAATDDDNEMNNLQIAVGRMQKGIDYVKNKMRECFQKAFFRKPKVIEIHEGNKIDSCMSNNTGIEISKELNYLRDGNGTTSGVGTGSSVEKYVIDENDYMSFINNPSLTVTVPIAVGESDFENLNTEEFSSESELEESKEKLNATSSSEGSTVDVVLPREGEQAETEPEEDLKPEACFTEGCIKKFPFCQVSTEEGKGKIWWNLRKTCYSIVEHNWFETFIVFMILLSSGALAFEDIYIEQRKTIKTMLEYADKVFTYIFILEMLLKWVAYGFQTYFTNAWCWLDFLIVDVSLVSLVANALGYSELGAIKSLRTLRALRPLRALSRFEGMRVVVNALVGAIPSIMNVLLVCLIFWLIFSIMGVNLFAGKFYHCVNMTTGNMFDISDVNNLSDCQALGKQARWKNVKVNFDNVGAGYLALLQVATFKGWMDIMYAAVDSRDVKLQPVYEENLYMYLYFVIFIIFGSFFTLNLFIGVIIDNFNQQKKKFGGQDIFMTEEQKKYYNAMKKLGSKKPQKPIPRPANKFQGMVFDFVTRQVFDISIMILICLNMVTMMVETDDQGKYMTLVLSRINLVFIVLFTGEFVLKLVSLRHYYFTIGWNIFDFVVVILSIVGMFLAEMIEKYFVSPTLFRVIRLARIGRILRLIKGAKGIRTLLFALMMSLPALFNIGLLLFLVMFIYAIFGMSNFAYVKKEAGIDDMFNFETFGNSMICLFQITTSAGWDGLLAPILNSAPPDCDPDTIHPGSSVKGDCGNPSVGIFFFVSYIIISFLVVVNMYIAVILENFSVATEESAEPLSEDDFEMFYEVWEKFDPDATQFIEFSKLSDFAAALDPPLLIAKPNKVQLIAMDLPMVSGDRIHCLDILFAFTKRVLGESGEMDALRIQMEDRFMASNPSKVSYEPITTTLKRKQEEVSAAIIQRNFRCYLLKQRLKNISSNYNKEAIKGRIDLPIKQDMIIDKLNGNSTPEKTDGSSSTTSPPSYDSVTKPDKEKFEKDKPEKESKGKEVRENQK

With `O=C(NC1CCc2ccccc21)c1ccc(S(=O)(=O)Nc2nccs2)cc1` (stereo not drawn) [Example 158, N-(2,3-dihydro-1H-inden-1-yl)-4-[(1,3-thiazol-2-ylamino)sulfonyl]benzamide], under setting [1], the IC50 was 2390 nM.
The same measure, in the same setting: in the case of `N#Cc1cccc(CNC(=O)c2ccc(S(=O)(=O)Nc3nccs3)cc2)c1` [Example 180, N-(3-cyanobenzyl)-4-[(1,3-thiazol-2-ylamino)sulfonyl]benzamide] it was > 1000 nM.
As to `O=C(Nc1nccc2cccnc12)c1ccc(S(=O)(=O)Nc2nccs2)cc1` [Example 116, N-1,7-naphthyridin-8-yl-4-[(1,3-thiazol-2-ylamino)sulfonyl]benzamide], the IC50 under setting [1] is > 100 nM.
For the molecule `CN(Cc1ccc(F)cc1)C(=O)c1ccc(S(=O)(=O)Nc2ncc(Cl)s2)cc1` [Example 43, 4-{[(5-Chloro-1,3-thiazol-2-yl)amino]sulfonyl}-N-(4-fluorobenzyl)-N-methylbenzamide], under setting [1], the IC50 is 4830 nM.
The same measure, in the same setting: in the case of `O=C(NCc1ccc(F)c(C(F)(F)F)c1)c1ccc(S(=O)(=O)Nc2ncc(Cl)s2)c(F)c1` [Example 316, 4-{[(5-Chloro-1,3-thiazol-2-yl)amino]sulfonyl}-3-fluoro-N-[4-fluoro-3-(trifluoromethyl)benzyl] benzamide] it was 140 nM.
Consider `O=C(NCc1ccc(OC(F)(F)F)c(F)c1)c1ccc(S(=O)(=O)Nc2nccs2)c(Cl)c1` [Example 286, 3-Chloro-N-[3-fluoro-4-(trifluoromethoxy)benzyl]-4-[(1,3-thiazol-2-yl-amino)sulfonyl]benzamide], for which the IC50 under setting [1] is 140 nM.
Same read-out and setting: in the case of `CC(NC(=O)c1ccc(S(=O)(=O)Nc2nccs2)cc1)c1ccc(C(F)(F)F)cc1` (stereo not drawn) [Example 118, 4-[(1,3-Thiazol-2-ylamino)sulfonyl]-N-{1-[4-(trifluoromethyl)phenyl]ethyl}benzamide] it was 760 nM; in that of `COc1ccc(CNC(=O)c2ccc(S(=O)(=O)Nc3nccs3)cc2)cc1C(F)(F)F` [Example 412, N-[4-methoxy-3-(trifluoromethyl)benzyl]-4-[(1,3-thiazol-2-ylamino)sulfonyl] benzamide], 270 nM; in that of `O=C(NCc1ccc(Cl)cc1Cl)c1ccc(S(=O)(=O)Nc2nccs2)cc1` [Example 413, N-(24-dichlorobenzyl)-4-[(1,3-thiazol-2-ylamino)sulfonyl] benzamide], 180 nM.
The same measure, in the same setting: the same measure for `O=C(Nc1ccn(Cc2ccc(Cl)cc2)n1)c1ccc(S(=O)(=O)Nc2ncc(Cl)s2)c(F)c1` [Example 380, N-[1-(4-chlorobenzyl)-1H-pyrazol-3-yl]-4-{[(5-chloro-1,3-thiazol-2-yl)amino]sulfonyl}-3-fluorobenzamide]: 170 nM.
For the molecule `O=C(NCc1ccc(OC(F)(F)F)cc1)c1ccc(S(=O)(=O)Nc2ncc(Cl)s2)cc1` [Example 45, 4-{[(5-Chloro-1,3-thiazol-2-yl)amino]sulfonyl}-N-[4-(trifluoromethoxy)benzyl]benzamide], the IC50 under setting [1] was 70 nM.
On the same count and under the same terms, in the case of `Cc1nnc(NS(=O)(=O)c2ccc(C(=O)NCc3ccc(C(F)(F)F)cc3)cc2)s1` [Example 11, 4-{[(5-Methyl-1,3,4-thiadiazol-2-yl)amino]sulfonyl}-N-[4-(trifluoromethyl)benzyl]benzamide] it was 2560 nM; in that of `O=C(NCCOc1ccccc1Cl)c1ccc(S(=O)(=O)Nc2nccs2)cc1` [Example 148, N-[2-(2-chlorophenoxy)ethyl]-4-[(1,3-thiazol-2-ylamino)sulfonyl]benzamide], 2500 nM; in that of `O=C(NCc1ccc(C(F)(F)F)cc1)c1ccc(S(=O)(=O)Nc2nccs2)c(Cl)c1` [Example 287, 3-Chloro-4-[(1,3-thiazol-2-ylamino)sulfonyl]-N-[4-(trifluoromethyl)benzyl]benzamide], 220 nM.
Same read-out and setting: in the case of `O=C(NCCc1ccccc1Cl)c1ccc(S(=O)(=O)Nc2nccs2)cc1` [Example 96, N-[2-(2-chlorophenyl)ethyl]-4-[(1,3-thiazol-2-ylamino)sulfonyl]benzamide] it was 910 nM; in that of `O=C(c1ccc(S(=O)(=O)Nc2nccs2)cc1)N1CCC[C@H]1COc1cccc(Cl)c1` [Example 384, 4-({(2S)-2-[(3-chlorophenoxy)methyl]pyrrolidin-1-yl}carbonyl)-N-1,3-thiazol-2-ylbenzenesulfonamide], 350 nM; in that of `O=C(NCc1ccc(C(F)(F)F)cc1)c1ccc(S(=O)(=O)Nc2nncs2)cc1` [Example 21, 4-[(1,3,4-Thiadiazol-2-ylamino)sulfonyl]-N-[4-(trifluoromethyl)benzyl]benzamide], 1970 nM.
On the same count and under the same terms, the same measure for `O=C(NCc1ccc(F)c(OC(F)(F)F)c1)c1ccc(S(=O)(=O)Nc2nccs2)c(Cl)c1` [Example 293, 3-Chloro-N-[4-fluoro-3-(trifluoromethoxy)benzyl]-4-[(1,3-thiazol-2-yl-amino)sulfonyl]benzamide]: 2320 nM; for `COc1cc(OC(F)(F)F)ccc1CNC(=O)c1ccc(S(=O)(=O)Nc2nccs2)cc1` [Example 404, N-[2-methoxy-4-(trifluoromethoxy)benzyl]-4-[(1,3-thiazol-2-ylamino)sulfonyl] benzamide]: 140 nM.
In the case of `N#Cc1cc(S(=O)(=O)Nc2ncc(Cl)s2)ccc1C(=O)NCc1ccc(C(F)(F)F)c(F)c1` [Example 348, 4-{[(5-Chloro-1,3-thiazol-2-yl)amino]sulfonyl}-2-cyano-N-[3-fluoro-4-(trifluoromethyl)benzyl]benzamide], the IC50 under setting [1] was 1580 nM.
Turning to `O=C(NCc1ccc(C(F)(F)F)c(Cl)c1)c1ccc(S(=O)(=O)Nc2nccs2)cn1` [Example 341, N-[3-chloro-4-(trifluoromethyl)benzyl]-5-[(1,3-thiazol-2-ylamino)sulfonyl] pyridine-2-carboxamide], the IC50 was 190 nM.
For the molecule `O=C(NCc1ccc(F)c(F)c1)c1ccc(S(=O)(=O)Nc2ncc(Cl)s2)c(Cl)c1` [Example 371, 3-Chloro-4-{[(5-chloro-1,3-thiazol-2-yl)amino]sulfonyl}-N-(3,4-difluorobenzyl) benzamide], the IC50 under setting [1] was 1300 nM.
Take `O=C(c1ccc(S(=O)(=O)Nc2nccs2)cc1)N1CCC(O)(c2cccc(F)c2)CC1` [Example 220, 4-{[4-(3-Fluorophenyl)-4-hydroxypiperidin-1-yl]carbonyl}-N-1,3-thiazol-2-yl-benzenesulfonamide]: the IC50 under setting [1] is > 1000 nM.
On to `O=C(c1ccc(S(=O)(=O)Nc2nccs2)cc1)N1CCCC1Cc1cccc(Cl)c1` (stereo not drawn) [Example 279, 4-{[2-(3-Chlorobenzyl)pyrrolidin-1-yl]carbonyl}-N-1,3-thiazol-2-yl-benzenesulfonamide], for which, under setting [1], the IC50 is 2200 nM.
With `COC(=O)c1csc(NS(=O)(=O)c2ccc(C(=O)NCc3ccc(C(F)(F)F)cc3)cc2)n1` [Example 17, Methyl 2-({[4-({[4-(trifluoromethyl)benzyl]amino}carbonyl)phenyl]sulfonyl}amino)-1,3-thiazole-4-carboxylate], the IC50 under setting [1] was 2940 nM.
`O=C(NCc1ccc(OC(F)(F)F)cc1)c1ccc(S(=O)(=O)Nc2nccs2)c(F)c1` [Example 301, 3-Fluoro-4-[(1,3-thiazol-2-ylamino)sulfonyl]-N-[4-(trifluoromethoxy)benzyl]benzamide]: the IC50 under setting [1] was 180 nM.
For the molecule `Cc1nsc(NS(=O)(=O)c2ccc(C(=O)NCc3ccc(C(F)(F)F)cc3)cc2)n1` [Example 6, 4-{[(3-Methyl-1,2,4-thiadiazol-5-yl)amino]sulfonyl}-N-[4-(trifluoromethyl)benzyl]benzamide], the IC50 under setting [1] was 1110 nM.
The same measure, in the same setting: in the case of `O=C(Nc1ccn(Cc2ccc(Cl)cc2)n1)c1ccc(S(=O)(=O)Nc2nccs2)cc1` [Example 308, N-[1-(4-chlorobenzyl)-1H-pyrazol-3-yl]-4-[(1,3-thiazol-2-ylamino)sulfonyl]benzamide] it was 320 nM; in that of `Cc1nc(NS(=O)(=O)c2ccc(C(=O)NCc3ccc(C(F)(F)F)cc3)cc2)cs1` [Example 15, 4-{[(2-Methyl-1,3-thiazol-4-yl)amino]sulfonyl}-N-[4-(trifluoromethyl)benzyl]benzamide], 31000 nM; in that of `Cc1cc(NS(=O)(=O)c2ccc(C(=O)NCc3ccc(C(F)(F)F)cc3)cc2)no1` [Example 18, 4-{[(5-Methylisoxazol-3-yl)amino]sulofnyl}-N-[4-(trifluoromethyl)benzyl]benzamide], 2260 nM.
On the same count and under the same terms, in the case of `O=C(NCc1ccc(C(F)(F)F)c(F)c1)c1ccc(S(=O)(=O)Nc2nccs2)c(F)c1` [Example 304, 3-Fluoro-N-[3-fluoro-4-(trifluoromethyl)benzyl]-4-[(1,3-thiazol-2-yl-amino)sulfonyl]benzamide] it was 70 nM; in that of `COc1ccc(CNC(=O)c2ccc(S(=O)(=O)Nc3nccs3)cc2)cc1Cl` [Example 405, N-(3-chloro-4-methoxybenzyl)-4-[(1,3-thiazol-2-ylamino)sulfonyl] benzamide], 60 nM.
`O=C(NCc1ccc(Cl)c(Cl)c1)c1ccc(S(=O)(=O)Nc2nccs2)c(F)c1` [Example 297, N-(3,4-dichlorobenzyl)-3-fluoro-4-[(1,3-thiazol-2-ylamino)sulfonyl]benzamide]: the IC50 under setting [1] is 60 nM.
Same read-out and setting: the same measure for `O=C(NCc1ccc(F)c(Cl)c1)c1ccc(S(=O)(=O)Nc2nccs2)c(F)c1` [Example 299, N-(3-chloro-4-fluorobenzyl)-3-fluoro-4-[(1,3-thiazol-2-yl-amino)sulfonyl]benzamide]: 110 nM.
`Cn1nc(Cc2ccc(Cl)cc2)cc1NC(=O)c1ccc(S(=O)(=O)Nc2ncc(Cl)s2)c(F)c1` [Example 379, N-[3-(4-chlorobenzyl)-1-methyl-1H-pyrazol-5-yl]-4-{[(5-chloro-1,3-thiazol-2-yl)-amino]sulfonyl}-3-fluorobenzamide]: the IC50 under setting [1] was 20 nM.
Still for that read-out and setting: the same measure for `O=C(NCc1ccc(F)c(Cl)c1)c1ccc(S(=O)(=O)Nc2nccs2)c(Cl)c1` [Example 294, 3-Chloro-N-(3-chloro-4-fluorobenzyl)-4-[(1,3-thiazol-2-yl-amino)sulfonyl]benzamide]: 1840 nM.
